Patent US8404859B2, “Thiazole and thiophene compounds” (Hoffmann-La Roche Inc., priority 2011, dated 2013)

Legend:
Mac-1/ICAM-1 = Mac-1/ICAM-1 (Homo sapiens, UniProt P05107+P11215); test: Mac-1/ICAM-1 ELISA; settings: Mac-1 receptor coated plates, 5dICAM-Fc binding
Description: (§1) sLFA-1/ICAM-1 ELISA and Mac-1/ICAM-1 ELISA
(§2) Plates were coated with either 50 μl/well of 2.0 ug/ml solution of sLFA-1 or Mac-1 receptor in divalent cation buffer (1 mM MnCI2, 0.14M NaCl, 20 mM HEPES pH 7.2) at 4° C. overnight. Two hundred fifty μl of blocking buffer (1% BSA in divalent cation buffer) was added to each well 1 hour at 37° C. Plates were washed 3 times with wash buffer (TBS/0.05% Tween-20/1 mM MnCl2). The compound to be tested was solubilized in DMSO. A series of 1:3 dilutions were performed to achieve a concentration range of 0.45 nM-3 uM. Fifty μl of binding buffer (0.5% BSA in divalent cation buffer)/1% DMSO and 50 μl of the solutions to be tested were added to the appropriate wells and incubated for 1 hour. Fifty μl of 5dICAM-Fc (27 ng/ml) was added to the appropriate wells and 50 μl binding buffer was added to non-specific binding wells and incubated for 2 hours and washed. One hundred μl of 1:4000 HRP-goat anti-huIgG was added to each well and incubated for 1 hour and washed. One hundred μl of 1:1 TMB solution was added to each well and developed for 20 min at room temperature. Color development was stopped by adding 100 μl H3PO4 to each well. Absorbance was measured at 450 nm.

sLFA-1/ICAM-1 = sLFA-1/ICAM-1 (Homo sapiens, UniProt P05107+P20701, DEL701-769); test: sLFA-1/ICAM-1 ELISA; settings: sLFA-1 coated plates, 5dICAM-Fc binding, read-out: LFA/ICAM (IC50)
Sequence of sLFA-1/ICAM-1 (P20701 26-1090 limits assumed, stated change not applied): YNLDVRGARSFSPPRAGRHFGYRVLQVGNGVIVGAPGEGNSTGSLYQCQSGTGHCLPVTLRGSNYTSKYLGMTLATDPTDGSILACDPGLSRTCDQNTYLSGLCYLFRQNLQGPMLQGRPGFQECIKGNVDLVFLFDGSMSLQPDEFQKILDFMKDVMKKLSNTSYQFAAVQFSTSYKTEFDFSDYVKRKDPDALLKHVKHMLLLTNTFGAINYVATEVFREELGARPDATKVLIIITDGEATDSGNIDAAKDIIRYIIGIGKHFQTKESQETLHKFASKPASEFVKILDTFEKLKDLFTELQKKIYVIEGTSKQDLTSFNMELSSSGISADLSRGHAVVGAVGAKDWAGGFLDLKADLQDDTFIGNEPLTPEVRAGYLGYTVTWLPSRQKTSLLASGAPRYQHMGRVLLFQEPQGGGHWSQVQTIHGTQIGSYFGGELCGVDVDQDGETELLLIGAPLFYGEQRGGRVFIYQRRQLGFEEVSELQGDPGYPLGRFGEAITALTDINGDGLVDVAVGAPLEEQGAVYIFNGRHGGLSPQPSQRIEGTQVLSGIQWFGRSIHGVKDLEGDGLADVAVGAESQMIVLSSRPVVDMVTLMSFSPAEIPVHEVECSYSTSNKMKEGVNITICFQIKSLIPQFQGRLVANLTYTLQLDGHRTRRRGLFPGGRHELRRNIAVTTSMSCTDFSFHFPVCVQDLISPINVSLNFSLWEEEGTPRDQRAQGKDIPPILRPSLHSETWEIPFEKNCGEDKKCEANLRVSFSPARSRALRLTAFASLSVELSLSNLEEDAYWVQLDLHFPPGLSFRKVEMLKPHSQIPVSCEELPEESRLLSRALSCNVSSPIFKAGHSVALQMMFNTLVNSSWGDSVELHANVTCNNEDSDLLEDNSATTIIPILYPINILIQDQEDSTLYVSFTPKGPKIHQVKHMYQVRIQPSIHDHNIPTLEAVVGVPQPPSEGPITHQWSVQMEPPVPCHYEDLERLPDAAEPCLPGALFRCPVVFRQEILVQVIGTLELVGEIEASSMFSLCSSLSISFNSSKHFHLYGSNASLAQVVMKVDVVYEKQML
Sequence of sLFA-1/ICAM-1 (P05107 23-700 limits assumed, stated change not applied): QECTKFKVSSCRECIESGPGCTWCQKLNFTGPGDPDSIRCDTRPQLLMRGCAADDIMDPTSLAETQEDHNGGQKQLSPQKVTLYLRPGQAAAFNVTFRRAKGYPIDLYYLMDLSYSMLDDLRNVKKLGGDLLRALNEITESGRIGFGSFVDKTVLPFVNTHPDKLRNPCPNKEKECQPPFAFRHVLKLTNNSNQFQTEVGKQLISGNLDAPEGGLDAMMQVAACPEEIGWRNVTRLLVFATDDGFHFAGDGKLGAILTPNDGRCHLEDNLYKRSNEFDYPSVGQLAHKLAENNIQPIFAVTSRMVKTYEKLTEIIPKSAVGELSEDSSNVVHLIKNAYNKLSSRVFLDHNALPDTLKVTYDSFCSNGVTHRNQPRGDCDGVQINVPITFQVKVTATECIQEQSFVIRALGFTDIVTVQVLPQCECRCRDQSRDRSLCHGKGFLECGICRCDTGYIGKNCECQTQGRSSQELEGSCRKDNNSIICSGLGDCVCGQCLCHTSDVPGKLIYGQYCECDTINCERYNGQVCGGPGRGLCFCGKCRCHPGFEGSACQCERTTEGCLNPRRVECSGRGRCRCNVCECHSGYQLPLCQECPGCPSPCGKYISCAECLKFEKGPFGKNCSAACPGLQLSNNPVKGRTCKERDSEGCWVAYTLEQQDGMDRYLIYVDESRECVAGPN
Description: as §1, §2

Sequence of Mac-1/ICAM-1 (P05107 23-769, other chains not shown): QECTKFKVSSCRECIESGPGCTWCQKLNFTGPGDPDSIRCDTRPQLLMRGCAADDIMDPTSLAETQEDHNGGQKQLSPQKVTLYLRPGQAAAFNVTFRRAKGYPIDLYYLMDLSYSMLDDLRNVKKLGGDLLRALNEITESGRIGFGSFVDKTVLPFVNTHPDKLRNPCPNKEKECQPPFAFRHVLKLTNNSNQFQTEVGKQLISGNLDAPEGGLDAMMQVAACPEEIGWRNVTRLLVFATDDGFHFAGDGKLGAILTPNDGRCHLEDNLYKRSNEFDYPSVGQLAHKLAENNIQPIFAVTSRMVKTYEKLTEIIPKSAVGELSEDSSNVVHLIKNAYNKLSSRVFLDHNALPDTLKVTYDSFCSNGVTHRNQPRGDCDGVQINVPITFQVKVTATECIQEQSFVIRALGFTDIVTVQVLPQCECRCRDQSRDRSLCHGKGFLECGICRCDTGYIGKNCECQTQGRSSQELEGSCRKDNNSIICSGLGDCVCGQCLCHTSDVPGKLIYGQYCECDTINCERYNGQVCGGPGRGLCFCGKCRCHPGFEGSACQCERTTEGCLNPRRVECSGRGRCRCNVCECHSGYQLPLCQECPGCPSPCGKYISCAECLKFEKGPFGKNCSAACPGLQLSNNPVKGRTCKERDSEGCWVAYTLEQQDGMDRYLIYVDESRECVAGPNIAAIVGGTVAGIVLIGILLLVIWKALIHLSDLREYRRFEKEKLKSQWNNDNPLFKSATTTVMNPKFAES

| IC50 (Mac-1/ICAM-1) [nM] | IC50 (sLFA-1/ICAM-1) [nM] | SMILES |
| --- | --- | --- |
| 55 | 41 | O=C(NC[C@H](NC(=O)c1sc(C(=O)NCc2cccc3[nH]ncc23)cc1C(F)(F)F)C(=O)O)c1cccs1 [Example 58, (S)-2-({5-[(1H-Indazol-4-ylmethyl)-carbamoyl]-3-trifluoromethyl-thiophene-2-carbonyl}-amino)-3-[(thiophene-2-carbonyl)-amino]-propionic acid] |
| 25 | 7 | O=C(NC[C@H](NC(=O)c1sc(C(=O)NCc2cccc(O)c2)cc1Br)C(=O)O)c1cccs1 [Example 63, (S)-2-{[3-Bromo-5-(3-hydroxy-benzylcarbamoyl)-thiophene-2-carbonyl]-amino}-3-[(thiophene-2-carbonyl)-amino]-propionic acid] |
| 46 | 29 | CC(C)c1cc(C(=O)NCc2cccc(O)c2)sc1C(=O)N[C@@H](CNC(=O)c1cccs1)C(=O)O [Example 59, (S)-2-{[5-(3-Hydroxy-benzylcarbamoyl)-3-isopropyl-thiophene-2-carbonyl]-amino}-3-[(thiophene-2-carbonyl)-amino]-propionic acid] |
| 58 | 4 | Cc1nc(NC(=O)Cc2cccc(O)c2)sc1C(=O)N[C@@H](CNC(=O)c1cccs1)C(=O)O [Example 2, (S)-2-({2-[2-(3-Hydroxy-phenyl)-acetylamino]-4-methyl-thiazole-5-carbonyl}-amino)-3-[(thiophene-2-carbonyl)-amino]-propionic acid] |
| > 3000 | 52 | Cc1nc(OCCCc2cccc(O)c2)sc1C(=O)N[C@@H](CNC(=O)c1cccs1)C(=O)O [Example 13, (S)-2-({2-[3-(3-Hydroxy-phenyl)-propoxy]-4-methyl-thiazole-5-carbonyl}-amino)-3-[(thiophene-2-carbonyl)-amino]-propionic acid] |
| 94 | 19 | Cc1cc(C(=O)NCc2cccc(O)c2)sc1C(=O)N[C@@H](CNC(=O)c1cccs1)C(=O)O [Example 32, (S)-2-{[5-(3-hydroxy-benzylcarbamoyl)-3-methyl-thiophen-2-carbonyl]-amino}-3-[(thiophene-2-carbonyl)-amino]-propionic acid] |
| > 3000 | 164 | O=C1Cc2c(CNC(=O)c3cc(C(F)(F)F)c(C(=O)N[C@@H](CNC(=O)c4cccs4)C(=O)O)s3)cccc2N1 [Example 51, (S)-2-({5-[(2-oxo-2,3-dihydro-1H-indol-4-ylmethyl)-carbamoyl]-3-trifluoromethyl-thiophene-2-carbonyl}-amino)-3-[(thiophene-2-carbonyl)-amino]-propionic acid] |
| 23 | 2 | Cc1cc(C(=O)NCc2cccc(O)c2)sc1C(=O)N[C@@H](CNC(=O)c1cccc(O)c1)C(=O)O [Example 40] |
| 31 | 16 | CCc1cc(C(=O)NCc2cccc(O)c2)sc1C(=O)N[C@@H](CNC(=O)c1cccs1)C(=O)O [Example 61, (S)-2-{[3-Ethyl-5-(3-hydroxy-benzylcarbamoyl)-thiophene-2-carbonyl]-amino}-3-[(thiophene-2-carbonyl)-amino]-propionic acid] |
| > 3000 | 344 | O=C(NC[C@H](NC(=O)c1sc(C(=O)NCc2cccc3[nH]ccc23)cc1C(F)(F)F)C(=O)O)c1cccs1 [Example 50, (S)-2-({5-[(1H-Indol-4-ylmethyl)-carbamoyl]-3-trifluoromethyl-thiophene-2-carbonyl}-amino)-3-[(thiophene-2-carbonyl)-amino]-propionic acid] |
| 300 | 2 | Cc1nc(NC(=O)Cc2cccc(O)c2)sc1C(=O)N[C@@H](CNC(=O)c1cccc(O)c1)C(=O)O [Example 5, (S)-3-(3-Hydroxy-benzoylamino)-2-({2-[2-(3-hydroxy-phenyl)-acetylamino]-4-methyl-thiazole-5-carbonyl}-amino)-propionic acid] |
| 20 | 29 | O=C(NC[C@H](NC(=O)c1sc(C(=O)NCc2cccc3[nH]ncc23)cc1Cl)C(=O)O)c1cccs1 [Example 56, (S)-2-({3-Chloro-5-[(1H-indazol-4-ylmethyl)-carbamoyl]-thiophene-2-carbonyl}-amino)-3-[(thiophene-2-carbonyl)-amino]-propionic acid] |
| 62 | 7 | O=C(NC[C@H](NC(=O)c1sc(C(=O)NCc2cccc(O)c2)cc1Cl)C(=O)O)c1cccs1 [Example 54, (S)-2-{[3-Chloro-5-(3-hydroxy-benzylcarbamoyl)-thiophene-2-carbonyl]-amino}-3-[(thiophene-2-carbonyl)-amino]-propionic acid] |
| 300 | 149 | CC(C)(C)c1cc(C(=O)NCc2cccc(O)c2)sc1C(=O)N[C@@H](CNC(=O)c1cccs1)C(=O)O [Example 33] |

More lines, now with the values behind:

| SMILES | IC50 (Mac-1/ICAM-1) [nM] | IC50 (sLFA-1/ICAM-1) [nM] |
| --- | --- | --- |
| Cc1cc(C(=O)NCc2cccc3c2CC(=O)N3)sc1C(=O)N[C@@H](CNC(=O)c1cccs1)C(=O)O [Example 35, (S)-2-({3-methyl-5-[(2-oxo-2,3-dihydro-11′-indol-4-ylmethyl)carbamoyl]-thiophen-2-carbonyl}-amino)-3-[(thiophene-2-carbonyl)-amino]-propionic acid] | > 3000 | 671 |
| Cc1nc(NC(=O)Cc2cccc3[nH]ncc23)sc1C(=O)N[C@@H](CNC(=O)c1cc(O)cc(O)c1)C(=O)O [Example 15, (S)-3-(3,5-Dihydroxy-benzoylamino)-2-{[2-(2-1H-indazol-4-yl-acetylamino)-4-methyl-thiazole-5-carbonyl}-amino]-propionic acid] | 12 | 3 |
| Cc1nc(NC(=O)Cc2cccc(O)c2)sc1C(=O)N[C@@H](CNC(=O)c1ccsc1)C(=O)O [Example 7, (S)-2-({2-[2-(3-Hydroxy-phenyl)-acetylamino]-4-methyl-thiazole-5-carbonyl}-amino)-3-[(thiophene-3-carbonyl)-amino]-propionic acid] | 30 | 5 |
| Cc1cc(C(=O)NCc2cccc(O)c2)sc1C(=O)N[C@@H](CNC(=O)c1cc(O)cc(O)c1)C(=O)O [Example 38, (S)-3-(3,5-dihydroxy-benzoylamino)-2-{[5-(3-hydroxy-benzylcarbamoyl)-3-methyl-thiophen-2-carbonyl]-amino}-propionic acid] | 7 | 2 |
| O=C(NC[C@H](NC(=O)c1sc(C(=O)NCc2cccc(O)c2)cc1C(F)(F)F)C(=O)O)c1cccs1 [Example 52, (S)-2-{[5-(3-Hydroxy-benzylcarbamoyl)-3-trifluoromethyl-thiophene-2-carbonyl]-amino}-3-[(thiophene-2-carbonyl)-amino]-propionic acid] | 115 | 31 |
| O=C(Cc1cccc(O)c1)Nc1ncc(C(=O)N[C@@H](CNC(=O)c2cccs2)C(=O)O)s1 [Example 3, (S)-2-({2-[2-(3-Hydroxy-phenyl)-acetylamino]-thiazole-5-carbonyl}-amino)-3-[(thiophene-2-carbonyl)-amino]-propionic acid] | > 3000 | 85 |
| Cc1cc(C(=O)NCc2cccc3[nH]ncc23)sc1C(=O)N[C@@H](CNC(=O)c1cccs1)C(=O)O [Example 36, (S)-2-({5-[(1H-indazol-4-ylmethyl)-carbamoyl]-3-methyl-thiophen-2-carbonyl}-amino)-3-[(thiophene-2-carbonyl)-amino]-propionic acid] | 48 | 24 |
| Cc1cc(C(=O)NCc2cccc(O)c2)sc1C(=O)N[C@@H](CNC(=O)c1cnccn1)C(=O)O [Example 41] | > 3000 | 21 |
| Cc1cc(C(=O)NCCc2cccc(O)c2)sc1C(=O)N[C@@H](CNC(=O)c1cc(O)cc(O)c1)C(=O)O [Example 49, (S)-3-(3,5-dihydroxy-benzoylamino)-2-([5-[2-(3-hydroxy-phenyl)-ethyl-carbamoyl]-3-methyl-thiophen-2-carbonyl]-amino)-propionic acid] | 207 | 18 |
| O=C(Cc1cccc(O)c1)Nc1nc(C(F)(F)F)c(C(=O)N[C@@H](CNC(=O)c2cccs2)C(=O)O)s1 [Example 9, (S)-2-([2-[2-(3-Hydroxy-phenyl)-acetylamino]-4-trifluoromethyl-thiazole-5-carbonyl]-amino)-3-[(thiophene-2-carbonyl)-amino]-propionic acid] | 82 | 30 |
